The supplement of paper PMC9663587

Key:
Experiment in all cases: area over the GR curve, 72 h; higher = more effect;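 also: Dye Drop or Deep Dye Drop imaging of viable cells in 384-well plates (Hoechst nuclei, LIVE/DEAD dye), nine half-log doses, GR normalized to DMSO controls and time-zero plates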
[1] = system: EVSAT
[2] = system: CAL120
[3] = system: PDXHCI002
[4] = system: SUM52PE
[5] = system: HCC202
[6] = system: MCF7
[7] = system: MDAMB361
[8] = system: HCC38
[9] = system: BT474
[10] = system: PDX1258
[11] = system: T47D
[12] = system: HS578T

Row | Structure (SMILES) | area over the GR curve [1] | area over the GR curve [2] | area over the GR curve [3] | area over the GR curve [4] | area over the GR curve [5] | area over the GR curve [6] | area over the GR curve [7] | area over the GR curve [8] | area over the GR curve [9] | area over the GR curve [10] | area over the GR curve [11] | area over the GR curve [12]
1 | CC(=O)Nc1cccc(-n2c(=O)n(C3CC3)c(=O)c3c(Nc4ccc(I)cc4F)n(C)c(=O)c(C)c32)c1 (max 1 µM) | 0.0263 GR | 0.294 GR | 0.2 GR | 0.224 GR | 0.237 GR | 0.277 GR | 0.219 GR | 0.207 GR | -0.316 GR | 0.0351 GR | 0.213 GR | 0.491 GR
2 | CC(=O)c1c(C)c2cnc(Nc3ccc(N4CCNCC4)cn3)nc2n(C2CCCC2)c1=O (max 3.162 µM) | 0.141 GR | 0.142 GR | 0.273 GR | 0.201 GR | 0.135 GR | 0.346 GR | 0.473 GR | 0.371 GR | 0.194 GR | -0.0777 GR | 0.45 GR | 0.32 GR
3 | COc1cccc2c1C(=O)c1c(O)c3c(c(O)c1C2=O)C[C@@](O)(C(=O)CO)C[C@@H]3O[C@H]1C[C@H](N)[C@H](O)[C@H](C)O1 [Doxorubicin] (max 3.162 µM) | 0.642 GR | 0.697 GR | 0.969 GR | 0.321 GR | 0.358 GR | 0.636 GR | 0.912 GR | 0.78 GR | 0.578 GR | 0.754 GR | 0.919 GR | 0.801 GR
4 | COc1cc([C@@H]2c3cc4c(cc3[C@@H](O[C@@H]3O[C@@H]5CO[C@@H](C)O[C@H]5[C@H](O)[C@H]3O)[C@H]3COC(=O)[C@H]23)OCO4)cc(OC)c1O [Etoposide] (max 10 µM) | – | 0.381 GR | 0.488 GR | – | – | 0.499 GR | 0.343 GR | 0.449 GR | – | 0.394 GR | 0.666 GR | 0.377 GR
5 | CCC(=O)Nc1ccc(C(=O)Nc2ccc(Nc3ncc4c(n3)N(C)c3ccc(C)cc3C(=O)N4C)cc2)cc1 [FMF-03-145-1] | 1 GR | 0.34 GR | 0.915 GR | 0.91 GR | 0.602 GR | 0.957 GR | 0.323 GR | 0.581 GR | 0.951 GR | 1.12 GR | 0.979 GR | 1.07 GR
6 | C=CCn1c(=O)c2cnc(Nc3ccc(N4CCN(C)CC4)cc3)nc2n1-c1cccc(C(C)(C)O)n1 [AZD1775] (max 10 µM) | 0.228 GR | 0.483 GR | 0.483 GR | 0.158 GR | 0.579 GR | 0.692 GR | 0.897 GR | 0.961 GR | 0.387 GR | 0.73 GR | 0.113 GR | 0.759 GR
7 | CC(=O)O[C@H]1C(=O)[C@@]2(C)[C@H]([C@H](OC(=O)c3ccccc3)[C@]3(O)C[C@H](OC(=O)[C@H](O)[C@@H](NC(=O)c4ccccc4)c4ccccc4)C(C)=C1C3(C)C)[C@]1(OC(C)=O)CO[C@@H]1C[C@@H]2O [Paclitaxel] (max 1 µM) | 0.844 GR | 0.746 GR | 0.921 GR | 0.898 GR | 0.552 GR | 0.772 GR | 0.974 GR | 0.843 GR | 0.873 GR | 0.68 GR | 0.661 GR | 0.954 GR
8 | CCCCOc1c(C(=O)c2c(F)cc(C)cc2F)c[nH]c2nncc1-2 (max 10 µM) | 0.322 GR | 0.346 GR | 0.108 GR | 0.464 GR | 0.359 GR | 0.697 GR | 0.56 GR | 0.768 GR | 0.137 GR | 1.05 GR | 0.649 GR | 0.651 GR
9 | C[C@@H]1COCCN1c1cc(C2([S@](C)(=N)=O)CC2)nc(-c2cc[nH]c3nccc2-3)n1 [AZD6738] (max 10 µM) | -0.0225 GR | -0.169 GR | 0.0278 GR | 0.0121 GR | 0.0023 GR | 0.179 GR | 0.161 GR | 0.247 GR | 0.0277 GR | 0.0598 GR | -0.205 GR | 0.0772 GR
10 | CC[C@@]1(O)C(=O)OCc2c1cc1n(c2=O)Cc2cc3c(CN(C)C)c(O)ccc3nc2-1 [Topotecan] (max 10 µM) | – | 0.913 GR | 1.02 GR | – | – | 0.854 GR | 1.13 GR | 1.07 GR | – | 0.867 GR | 0.959 GR | 1.02 GR
11 | CCN1CCN(Cc2ccc(Nc3ncc(F)c(-c4cc(F)c5nc(C)n(C(C)C)c5c4)n3)nc2)CC1 (max 10 µM) | 0.324 GR | 0.478 GR | 0.764 GR | 0.341 GR | 0.277 GR | 0.702 GR | 0.828 GR | 0.64 GR | 0.329 GR | 0.329 GR | 0.766 GR | 0.634 GR
12 | Cc1cc(Nc2ncc(Cl)c(Nc3ccccc3S(=O)(=O)C(C)C)n2)c(OC(C)C)cc1C1CCNCC1 [Ceritinib/LDK378] (max 10 µM) | 0.0642 GR | 0.337 GR | 0.503 GR | 0.0274 GR | 0.119 GR | 0.457 GR | 0.546 GR | 0.208 GR | -0.229 GR | 0.199 GR | 0.312 GR | 0.305 GR
13 | COc1cc2c(Oc3ccc4[nH]c(C)cc4c3F)ncnc2cc1OCCCN1CCCC1 [Cediranib/AZD2171] (max 10 µM) | 0.064 GR | 0.299 GR | 0.255 GR | 0.379 GR | 0.0677 GR | 0.0756 GR | 0.288 GR | 0.202 GR | -0.139 GR | 0.0493 GR | 0.122 GR | 0.394 GR
14 | CNCc1ccc(-c2[nH]c3cc(F)cc4c3c2CCNC4=O)cc1 [Rucaparib] (max 10 µM) | 0.0455 GR | 0.125 GR | 0.0896 GR | 0.0094 GR | 0.207 GR | 0.0771 GR | 0.336 GR | 0.139 GR | 0.122 GR | 0.204 GR | 0.0635 GR | 0.0974 GR
15 | NC(=O)Nc1cc(-c2cccc(F)c2)sc1C(=O)N[C@H]1CCCNC1 [AZD7762] (max 10 µM) | 0.253 GR | 0.492 GR | 0.694 GR | 0.634 GR | 0.652 GR | 0.597 GR | 1.05 GR | 0.916 GR | 0.0464 GR | 0.909 GR | -0.0211 GR | 0.863 GR
16 | N.N.[Cl][Pt][Cl] [Cisplatin] (max 10 µM) | – | 0.182 GR | 0.201 GR | – | – | 0.0631 GR | 0.177 GR | 0.257 GR | – | 0.155 GR | 0.214 GR | 0.235 GR
